In patent US6849634B2, “Potassium channel inhibitors” (ICAgen, priority 2000, dated 2005):

target: T1, Kv1.5 (Homo sapiens, UniProt P22460); assay: Kv1.5 inhibition by patch clamp technique; format: cell-based; conditions: inhibitors of Kv1.5
T1 construct: expressed in transfected cells; host or cells: CHO cells
Text: The pharmacological profile of the potassium channel inhibitory activity of the compounds of the present invention can be readily assessed by those skilled in the art using routine experimentation, such as the procedures and techniques illustrated in the examples which follow. Assays for assessing the activity of particular compounds may employ cells stably transfected to express a specific potassium channel, as well as native mammalian cells. In particular, stable transfected cells, transfected to express a specific potassium channel, which have been treated with a voltage dependent fluorescent dye, such as bis-(1,3-dibutylbarbituric acid) trimethine oxonol, can be used to gauge the inhibitory activity of potassium channel inhibitor compounds, possibly in comparison to known inhibitors. Alternatively, such cells can be primed with a detectible species, such as 86Rb, and then challenged with a particular compound, under conditions otherwise suitable for activating the potassium channel, to assess the potassium inhibitory activity of the compound. The potassium channel inhibitory activity of a compound also can be determined using isolated mammalian cells and the whole cell configuration of the known patch clamp technique (Hamill et al., Pflugers Archiv 391:85, 1981). These and other known techniques can be readily employed by those skilled in the art to assess the activity level of the potassium channel inhibitor compounds of the present invention.
The cloning, construction and testing of CHO cells that express human voltage-gate potassium channels are described in prior U.S. patent application Ser. No. 08/893,160 (published as WO 98/04521, see also U.S. Pat. No. 6,083,986), as are assays for measuring ^86rubidium efflux from cell monolayers; fluorescence measurement of cell membrane potential; electrophysiological studies and lymphocyte proliferation studies, all of which are incorporated herein by reference.
The efficacy of various compounds of the present invention as inhibitors of Kv1.5 are shown in Table 2 (using the known patch clamp techniques cited above and described in detail in WO 98/04521 (see also U.S. Pat. No. 6,083,986), the disclosure of which is incorporated herein by reference)

T1 sequence (P22460 whole entry): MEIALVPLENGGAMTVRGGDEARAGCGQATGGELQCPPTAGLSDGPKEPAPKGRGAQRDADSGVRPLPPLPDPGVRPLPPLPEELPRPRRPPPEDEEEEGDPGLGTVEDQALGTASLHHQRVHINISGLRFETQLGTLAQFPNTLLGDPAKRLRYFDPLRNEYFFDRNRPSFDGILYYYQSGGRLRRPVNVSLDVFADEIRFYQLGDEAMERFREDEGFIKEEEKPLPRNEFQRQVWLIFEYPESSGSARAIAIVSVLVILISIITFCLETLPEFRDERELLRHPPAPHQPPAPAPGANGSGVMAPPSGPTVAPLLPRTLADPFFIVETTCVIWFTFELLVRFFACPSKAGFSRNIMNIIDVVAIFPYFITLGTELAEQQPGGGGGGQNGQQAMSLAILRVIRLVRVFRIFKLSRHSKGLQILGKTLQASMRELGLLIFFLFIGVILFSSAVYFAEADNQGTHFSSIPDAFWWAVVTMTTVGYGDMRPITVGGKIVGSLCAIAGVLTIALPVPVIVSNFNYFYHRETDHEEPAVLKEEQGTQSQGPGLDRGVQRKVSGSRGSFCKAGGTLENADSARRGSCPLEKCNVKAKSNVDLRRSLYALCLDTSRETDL

**Q.** With `CCc1ccc(S(=O)(=O)NC2CCc3ccc(Nc4ncccc4NC(=O)CCc4ccccc4)cc32)cc1` (stereo not shown) [Compound 1] as the compound, how does the inhibition at 0.1 µM read?
**A.** 46%

**Q.** `C=CCNC(=O)c1cccnc1Nc1ccc2c(c1)C(NS(=O)(=O)c1ccc(CC)cc1)CC2` (stereo not shown) [Compound 26] was tested. Which inhibition at 0.1 µM did it give?
**A.** 38%

**Q.** `C#CCNC(=O)c1cccnc1Nc1ccc2c(c1)C(NS(=O)(=O)c1ccc(CC)cc1)CC2` (stereo not shown) [Compound 27] was tested. Which inhibition at 0.1 µM did it give?
**A.** 43%

**Q.** With `CCCNC(=O)c1cccnc1Nc1ccc2c(c1)C(NS(=O)(=O)c1ccc(CC)cc1)CC2` (stereo not shown) [Compound 37] as the compound, how does the inhibition at 0.1 µM read?
**A.** 35%

**Q.** `CCc1ccc(S(=O)(=O)NC2CCc3ccc(Nc4ncccc4C(=O)NCc4ccco4)cc32)cc1` (stereo not shown) [Compound 42] was tested. Which inhibition at 0.1 µM did it give?
**A.** 45%

**Q.** How did the inhibition at 0.1 µM turn out when `O=C(NCCc1ccccc1)c1cccnc1Nc1ccc2c(c1)C(NS(=O)(=O)c1ccc(F)cc1)CC2` (stereo not shown) [Compound 58] was run?
**A.** 27%

**Q.** How did the inhibition at 0.1 µM turn out when `O=C(NCc1cccs1)c1cccnc1Nc1ccc2c(c1)C(NS(=O)(=O)c1ccc(F)cc1)CC2` (stereo not shown) [Compound 59] was run?
**A.** 20%
